Reference: paper PMC7516806, “Hybrid Antimicrobial Peptide Targeting Staphylococcus aureus and Displaying Anti-infective Activity in a Murine Model” (Frontiers in Microbiology, 2020)
No end group written: not given here.

How the values were obtained:
E. coli K88 = settings: MHB, 2–7 × 10^5 CFU/ml, 37°C, 24 h, no turbidity, at least three independent repeats
Excerpt: (§1) The bacterial strains Escherichia coli (E. coli) ATCC 25922, E. coli K88, E. coli K99, Pseudomonas aeruginosa (P. aeruginosa) ATCC 27853, Escherichia coli (E. coli) UB1005, Salmonella typhimurium 14028, Salmonella pullorum (S. pullorum) C7913, S. typhimurium C7731, S. aureus ATCC 29213, MRSA ATCC 43300, and S. aureus ATCC 25923 were obtained from the College of Veterinary Medicine, Northeast Agricultural University, China. Lactobacillus plantarum (L. plantarum) 8014, Lactobacillus rhamnosus (L. rhamnosus) 7469, L. rhamnosus 1.0911, L. rhamnosus 1.0936, and L. rhamnosus 1.0385 were obtained from the Key Laboratory of Food College, Northeast Agricultural University, China.
(§2) As in a previous study, the antimicrobial activities of the AMPs were investigated using a modified standard microtiter dilution method ([Dong et al., 2014]). The peptides were serially diluted with a solution containing 0.01% acetic acid and 0.2% bovine serum albumin (BSA, Sigma) in 96-well plates. The bacteria grew to the mid-log phase and then were dissolved in MHB at concentration of 2–7 × 10^5 CFU/ml. The peptides and bacterial solution were mixed in equal volume in a 37°C incubator for 24 h. […] Mueller-Hinton broth with microorganisms was used as the positive control, and the pure broth was used as the negative control. The experiment was repeated at least three times independently.

E. coli K99 = settings: MHB, 2–7 × 10^5 CFU/ml, 37°C, 24 h, no turbidity, at least three independent repeats
Excerpt: as §1, §2

MRSA 43300 = format: cell-based, Staphylococcus aureus; settings: MHB, 2–7 × 10^5 CFU/ml, 37°C, 24 h, no turbidity, at least three independent repeats
Excerpt: (§3) The experiment was repeated at least three times independently.

E. coli UB1005 = test: MIC, modified microtiter dilution; format: cell-based, Escherichia coli; settings: MHB, 2–7 × 10^5 CFU/ml, 37°C, 24 h, no turbidity, at least three independent repeats
Excerpt: as §3

E. coli 25922 = test: MIC, modified microtiter dilution; format: cell-based, Escherichia coli; settings: MHB, 2–7 × 10^5 CFU/ml, 37°C, 24 h, lowest concentration with no turbidity, at least three independent repeats
Excerpt: as §3

L. rhamnosus 1.0911 = test: MIC, modified microtiter dilution; format: cell-based, Lactobacillus rhamnosus; settings: 2–7 × 10^5 CFU/ml, 37°C, 24 h, no turbidity, at least three independent repeats
Excerpt: as §3

L. rhamnosus 1.0936 = test: MIC, modified microtiter dilution; format: cell-based, Lactobacillus rhamnosus; settings: 2–7 × 10^5 CFU/ml, 37°C, 24 h, no turbidity, at least three independent repeats
Excerpt: as §3

L. rhamnosus 1.0385 = test: MIC, modified microtiter dilution; format: cell-based, Lactobacillus rhamnosus; settings: 2–7 × 10^5 CFU/ml, 37°C, 24 h, no turbidity, at least three independent repeats
Excerpt: as §3

L. rhamnosus 7469 = test: MIC, modified microtiter dilution; format: cell-based, Lactobacillus rhamnosus; settings: 2–7 × 10^5 CFU/ml, 37°C, 24 h, no turbidity, at least three independent repeats
Excerpt: as §3

S. typhimurium 7731 = test: MIC, modified microtiter dilution; format: cell-based, Salmonella typhimurium; settings: MHB, 2–7 × 10^5 CFU/ml, 37°C, 24 h, no turbidity, at least three independent repeats
Excerpt: as §3

S. typhimurium 14028 = test: MIC, modified microtiter dilution; format: cell-based, Salmonella typhimurium; settings: MHB, 2–7 × 10^5 CFU/ml, 37°C, 24 h, no turbidity, at least three independent repeats
Excerpt: as §3

[1] = system: human red blood cells (hRBCs); test: Hemolysis assay; format: cell-based; settings: 1.5 h, 37°C, absorbance 570 nm; 0.1% Triton X-100 positive control
Experimental: The cytotoxicity of peptides was determined by healthy human erythrocytes and the murine macrophage cell line RAW 264.7 via a hemolysis assay and MTT dye reduction assay, respectively ([Wang et al., 2018]). In the hemolysis assay, fresh hRBCs from healthy people were centrifuged for 5 min at 1,000 × g and then washed three times with PBS (pH = 7.2). The 100 μL erythrocyte suspension and peptides were incubated for 1.5 h in an incubator at 37°C. The 96-well plates were centrifuged at 1,000 × g for 5 min, and the supernatants were carefully aspirated. The absorbance at 570 nm indicated the leakage of hemoglobin. The hRBCs in the PBS sample was used as the negative control, and 0.1% Triton X-100 addition served as the positive control. In the MTT dye reduction assay, 1.0–2.0 × 10^5 cells were plated in 96-well plates and then treated with various concentrations of peptides for 4 h at 37°C in a 5% CO2 incubator. Subsequently, 50 μL of MTT was added to the plated cells at a final concentration of 0.5 mg/mL and incubated for 4 h. Then, the cells were centrifuged at 1000 × g for 5 min, and the supernatants were discarded. Formazan crystals were dissolved in 150 μL of DMSO, and the OD570 nm was measured using a microplate reader (TECAN GENios F129004; TECAN, Austria). The experiment was repeated three times independently.

S. pullorum 7913 = test: MIC, modified microtiter dilution; format: cell-based, Salmonella pullorum; settings: MHB, 2–7 × 10^5 CFU/ml, 37°C, 24 h, no turbidity, at least three independent repeats
Excerpt: as §3

S. aureus 25923 = test: MIC, modified microtiter dilution; format: cell-based, Staphylococcus aureus; settings: MHB, 2–7 × 10^5 CFU/ml, 37°C, 24 h, no turbidity, at least three independent repeats
Excerpt: as §3

S. aureus 29213 [2] = test: MIC, modified microtiter dilution; format: cell-based, Staphylococcus aureus; settings: MHB, 2–7 × 10^5 CFU/ml, 37°C, 24 h, no turbidity, at least three independent repeats
Excerpt: as §3

P. aeruginosa 27853 = test: MIC, modified microtiter dilution; format: cell-based, Pseudomonas aeruginosa; settings: MHB, 2–7 × 10^5 CFU/ml, 37°C, 24 h, no turbidity, at least three independent repeats
Excerpt: as §3

S. aureus 29213 [3] = test: MIC in the presence of physiological salts; format: cell-based, Staphylococcus aureus; settings: three independent repeats, unit not given in Table 4
Experimental: as §3
The MIC of peptides was determined in the presence of salts at physiological concentrations (150 mM NaCl, 4.5 mM KCl, 6 μM NH4Cl, 8 μM ZnCl2, 1 mM MgCl2, 2 mM CaCl2, and 4 μM FeCl3) as described previously ([Dong et al., 2014]). All experiments were performed three times independently.

L. plantarum 8014 = test: MIC, modified microtiter dilution; format: cell-based, Lactobacillus plantarum; settings: 2–7 × 10^5 CFU/ml, 37°C, 24 h, no turbidity, at least three independent repeats
Excerpt: as §3

Question: With RWWWLL-NH2 [Peptide S7] as the substance, how does the “MIC E. coli K88” value (E. coli K88) read?
Answer: 16 µM

Question: And the “MIC E. coli K99” value (E. coli K99)?
Answer: 16 µM

Question: And the “MIC MRSA 43300” value (MRSA 43300)?
Answer: 8 µM

Question: What about the “MIC E. coli UB1005” value (E. coli UB1005) of the same substance?
Answer: 16 µM

Question: And the “MIC E. coli 25922” value (E. coli 25922)?
Answer: 16 µM

Question: And the “MIC L. rhamnosus 1.0911” value (L. rhamnosus 1.0911)?
Answer: >64 µM

Question: And the “MIC L. rhamnosus 1.0936” value (L. rhamnosus 1.0936)?
Answer: >64 µM

Question: And the “MIC L. rhamnosus 1.0385” value (L. rhamnosus 1.0385)?
Answer: >64 µM

Question: And the “MIC L. rhamnosus 7469” value (L. rhamnosus 7469)?
Answer: >64 µM

Question: What about the “MIC S. typhimurium 7731” value (S. typhimurium 7731) of the same substance?
Answer: 16 µM

Question: And the “MIC S. typhimurium 14028” value (S. typhimurium 14028)?
Answer: 32 µM

Question: What about the “hemolytic activity against hRBCs” value [1] of the same substance?
Answer: barely exhibited hemolysis effects

Question: What about the “MIC S. pullorum 7913” value (S. pullorum 7913) of the same substance?
Answer: >64 µM

Question: What about the “MIC S. aureus 25923” value (S. aureus 25923) of the same substance?
Answer: 8 µM

Question: What about the “MIC S. aureus 29213” value (S. aureus 29213 [2]) of the same substance?
Answer: 8 µM

Question: And the “MIC P. aeruginosa 27853” value (P. aeruginosa 27853)?
Answer: >64 µM

Question: What about the “MIC against S. aureus 29213, FeCl3” value (S. aureus 29213 [3]; 4 μM FeCl3) of the same substance?
Answer: 8 µM

Question: And the “MIC against S. aureus 29213, NH4Cl” value (S. aureus 29213 [3]; 6 μM NH4Cl)?
Answer: 8 µM

Question: What about the “MIC against S. aureus 29213, ZnCl2” value (S. aureus 29213 [3]; 8 μM ZnCl2) of the same substance?
Answer: 4 µM

Question: And the “MIC against S. aureus 29213, MgCl2” value (S. aureus 29213 [3]; 1 mM MgCl2)?
Answer: 8 µM

Question: And the “MIC against S. aureus 29213, CaCl2” value (S. aureus 29213 [3]; 2 mM CaCl2)?
Answer: 16 µM

Question: And the “MIC against S. aureus 29213, KCl” value (S. aureus 29213 [3]; 4.5 mM KCl)?
Answer: 8 µM

Question: What about the “MIC against S. aureus 29213, NaCl” value (S. aureus 29213 [3]; 150 mM NaCl) of the same substance?
Answer: 8 µM

Question: And the “MIC L. plantarum 8014” value (L. plantarum 8014)?
Answer: >64 µM
